The term IC50 denotes the concentration at which inhibition is half-maximal.

Data on seven molecules can be found in patent US8389513B2, “2-amino-5,5-difluoro-5,6-dihydro-4H-[1,3]oxazin-4-yl)-phenyl]-amides” (Hoffmann-La Roche Inc., priority 2009, dated 2013).

A short description of one data set: in vivo effect. Particulars: po; % of control @ 30 mg/kg p.o.
In another data set the target is T1, BACE2 (Rattus norvegicus, UniProt Q6IE75).
T1 construct: endogenous cellular BACE2 in the Ins1e rat cell line; endogenous in cells; host or cells: INS-TMEM27 (INS1e-derived rat cell line with TetOn-inducible full-length hTMEM27)
T1 sequence (Q6IE75 63-514): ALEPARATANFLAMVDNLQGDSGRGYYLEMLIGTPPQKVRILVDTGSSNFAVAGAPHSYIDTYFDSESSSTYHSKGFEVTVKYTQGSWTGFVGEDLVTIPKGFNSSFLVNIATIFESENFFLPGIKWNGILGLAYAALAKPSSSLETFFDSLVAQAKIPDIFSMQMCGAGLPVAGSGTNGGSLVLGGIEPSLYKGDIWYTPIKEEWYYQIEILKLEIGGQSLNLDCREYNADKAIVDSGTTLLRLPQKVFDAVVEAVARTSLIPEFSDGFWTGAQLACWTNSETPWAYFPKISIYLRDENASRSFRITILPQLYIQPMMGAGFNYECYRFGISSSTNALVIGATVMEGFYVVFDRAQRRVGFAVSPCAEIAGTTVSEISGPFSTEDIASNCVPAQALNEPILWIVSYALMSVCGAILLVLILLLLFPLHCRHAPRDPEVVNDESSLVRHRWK
Briefly: Assay for BACE inhibition by measuring cellular TMEM27 cleavage. Format: cell-based. Particulars: INS-TMEM27 cells (INS1e-derived); shed TMEM27 by ELISA; read-out: BACE2 cell act. IC50. In a few lines:
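Ins1e-derived INS-TMEM27 rat cells with doxycycline-inducible full-length human TMEM27; inhibitor added 2 h before doxycycline (500 ng/ml final), then 46 h at 37 °C. Shed TMEM27 in supernatant quantified by sandwich ELISA with anti-human-TMEM27 antibodies; EC50 from curve fit across inhibitor concentrations.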
A general note: In an ELISA, binding on a coated surface is turned into a signal by an enzyme label.

A further data set deals with T2, hERG channel (Homo sapiens, UniProt Q12809).
T2 construct: expressed in transfected cells; host or cells: CHO
T2 sequence (Q12809 whole entry): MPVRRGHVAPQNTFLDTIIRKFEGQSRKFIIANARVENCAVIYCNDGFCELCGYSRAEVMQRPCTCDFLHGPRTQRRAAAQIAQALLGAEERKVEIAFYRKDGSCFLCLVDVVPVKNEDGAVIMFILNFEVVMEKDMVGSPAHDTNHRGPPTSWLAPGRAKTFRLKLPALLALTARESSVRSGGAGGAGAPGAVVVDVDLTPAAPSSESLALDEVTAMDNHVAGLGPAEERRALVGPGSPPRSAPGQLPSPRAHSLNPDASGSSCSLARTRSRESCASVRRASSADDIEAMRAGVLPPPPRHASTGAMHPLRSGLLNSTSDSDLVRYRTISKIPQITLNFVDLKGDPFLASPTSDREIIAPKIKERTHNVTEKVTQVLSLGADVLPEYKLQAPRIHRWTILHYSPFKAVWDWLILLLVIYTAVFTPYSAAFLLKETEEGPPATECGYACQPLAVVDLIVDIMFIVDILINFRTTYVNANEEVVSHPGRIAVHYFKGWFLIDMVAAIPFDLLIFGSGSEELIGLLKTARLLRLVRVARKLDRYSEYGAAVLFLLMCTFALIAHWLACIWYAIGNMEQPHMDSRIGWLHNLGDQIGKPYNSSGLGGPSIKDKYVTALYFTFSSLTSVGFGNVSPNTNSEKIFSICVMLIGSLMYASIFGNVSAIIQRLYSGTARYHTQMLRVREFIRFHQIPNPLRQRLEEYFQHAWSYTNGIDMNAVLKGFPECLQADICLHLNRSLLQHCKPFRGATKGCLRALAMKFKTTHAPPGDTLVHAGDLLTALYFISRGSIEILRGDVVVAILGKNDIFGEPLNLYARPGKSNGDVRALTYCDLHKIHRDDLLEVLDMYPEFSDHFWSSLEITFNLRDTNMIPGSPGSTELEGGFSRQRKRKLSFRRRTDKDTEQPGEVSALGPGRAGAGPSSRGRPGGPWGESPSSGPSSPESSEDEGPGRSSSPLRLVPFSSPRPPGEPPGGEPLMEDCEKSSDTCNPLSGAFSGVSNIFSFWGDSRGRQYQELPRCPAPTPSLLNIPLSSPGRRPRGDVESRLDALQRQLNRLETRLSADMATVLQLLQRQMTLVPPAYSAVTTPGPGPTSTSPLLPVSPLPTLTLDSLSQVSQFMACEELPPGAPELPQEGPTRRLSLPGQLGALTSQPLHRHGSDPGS
Briefly: PatchXpress hERG inhibition assay. It is filed as cell-based. Particulars: % inhibition @ 1 μM. From the text:
PatchXpress hERG Inhibition Assay
For patch clamp electrophysiology, the external buffer contained (in mM): 150 NaCl, 10 Hepes, 4 KCl, 1.2 CaCl2, 1 MgCl2, pH 7.4 adjusted with […] and the internal recording solution contained (in mM): 140 KCl, 6 EGTA, 5 Hepes, MgCl2, 5 ATP-Na2, pH 7.2 adjusted with KOH. Once the cell was loaded in the recording chamber and formed a giga ohm seal with the planar glass electrodes (Sealchip™), a whole-cell configuration was achieved by rupturing the cell membrane. The membrane potential was then clamped at −80 mV and the hERG channel activated by a 1-second depolarizing pulse delivered at 0.1 Hz, the hERG current was measured during the 500 ms-repolarizing pulse to −40 mV. […] The inhibition of hERG current at each concentration was normalized to that recorded in the vehicle control, and fitted with Hill equation to calculate IC20 and/or IC50.

In data set [1] the target is T3, recombinant human cathepsin E (Homo sapiens, UniProt P14091).
T3 construct: purchased R&D Systems
T3 sequence (P14091 54-396): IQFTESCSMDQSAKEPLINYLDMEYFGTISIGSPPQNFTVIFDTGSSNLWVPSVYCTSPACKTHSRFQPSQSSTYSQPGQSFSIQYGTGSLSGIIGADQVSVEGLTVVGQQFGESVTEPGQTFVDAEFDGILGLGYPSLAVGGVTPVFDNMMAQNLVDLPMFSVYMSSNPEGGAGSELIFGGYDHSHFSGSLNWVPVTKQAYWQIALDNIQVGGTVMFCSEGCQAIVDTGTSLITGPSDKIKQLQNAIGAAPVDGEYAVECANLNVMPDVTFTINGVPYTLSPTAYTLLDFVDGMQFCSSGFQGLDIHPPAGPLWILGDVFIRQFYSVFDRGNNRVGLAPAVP
Kind of data set: Cathepsin E fluorescent substrate kinetic assay. Format: biochemical. Particulars: pH 4.5. From the text:
Cathepsin D and Cathepsin E Fluorescent Substrate Kinetic Assays
The MR121 fluorescence assays described below are based on the fact that MR121 forms a non-fluorescent ground state complex with tryptophan. In solution this formation occurs at millimolar concentrations of tryptophan. The mechanism can be used to design a generic biochemical assay for proteases. […] In absence of protease activity, the substrates remain intact and the MR121 fluorescence is reduced by the high local Trp-concentration. If the substrates are cleaved by the enzymes the MR121 fluorescence is recovered.
The fluorescent substrate cathepsin D and cathepsin E kinetic assays were performed at room temperature in 384-well microtiter plates (black with clear flat bottom, non binding surface plates from Corning) in a final volume of 51 μl. The test compounds were serially diluted in DMSO (15 concentrations, 1/3 dilution steps) and 1 μl of diluted compounds were mixed for 10 min with 40 μl of cathepsin D (from human liver, Calbiochem) diluted in assay buffer (100 mM sodium acetate, 0.05% BSA, pH 5.5; final concentration: 200 nM) or with 40 μl of recombinant human cathepsin E (R&D Systems) diluted in assay buffer (100 mM sodium acetate, 0.05% BSA, pH 4.5; final concentration: 0.01 nM). […] The enzymatic reaction was followed in a plate: vision reader (Perkin Elmer) (excitation wavelength: 630 nm; emission: 695 nm) for at least 30 minutes in a kinetic measurement detecting an increase of MR121 fluorescence during the reaction time. The slope in the linear range of the kinetic was calculated and the IC50 of the test compounds were determined using a four parameter equation for curve fitting.

A further data set deals with P-gP (Homo sapiens, UniProt P08183). Kind of data set: P-gP human efflux ratio. Format: in vitro ADME. Further details: key: A = not or weak substrate.
Sequence of P-gP (P08183 whole entry): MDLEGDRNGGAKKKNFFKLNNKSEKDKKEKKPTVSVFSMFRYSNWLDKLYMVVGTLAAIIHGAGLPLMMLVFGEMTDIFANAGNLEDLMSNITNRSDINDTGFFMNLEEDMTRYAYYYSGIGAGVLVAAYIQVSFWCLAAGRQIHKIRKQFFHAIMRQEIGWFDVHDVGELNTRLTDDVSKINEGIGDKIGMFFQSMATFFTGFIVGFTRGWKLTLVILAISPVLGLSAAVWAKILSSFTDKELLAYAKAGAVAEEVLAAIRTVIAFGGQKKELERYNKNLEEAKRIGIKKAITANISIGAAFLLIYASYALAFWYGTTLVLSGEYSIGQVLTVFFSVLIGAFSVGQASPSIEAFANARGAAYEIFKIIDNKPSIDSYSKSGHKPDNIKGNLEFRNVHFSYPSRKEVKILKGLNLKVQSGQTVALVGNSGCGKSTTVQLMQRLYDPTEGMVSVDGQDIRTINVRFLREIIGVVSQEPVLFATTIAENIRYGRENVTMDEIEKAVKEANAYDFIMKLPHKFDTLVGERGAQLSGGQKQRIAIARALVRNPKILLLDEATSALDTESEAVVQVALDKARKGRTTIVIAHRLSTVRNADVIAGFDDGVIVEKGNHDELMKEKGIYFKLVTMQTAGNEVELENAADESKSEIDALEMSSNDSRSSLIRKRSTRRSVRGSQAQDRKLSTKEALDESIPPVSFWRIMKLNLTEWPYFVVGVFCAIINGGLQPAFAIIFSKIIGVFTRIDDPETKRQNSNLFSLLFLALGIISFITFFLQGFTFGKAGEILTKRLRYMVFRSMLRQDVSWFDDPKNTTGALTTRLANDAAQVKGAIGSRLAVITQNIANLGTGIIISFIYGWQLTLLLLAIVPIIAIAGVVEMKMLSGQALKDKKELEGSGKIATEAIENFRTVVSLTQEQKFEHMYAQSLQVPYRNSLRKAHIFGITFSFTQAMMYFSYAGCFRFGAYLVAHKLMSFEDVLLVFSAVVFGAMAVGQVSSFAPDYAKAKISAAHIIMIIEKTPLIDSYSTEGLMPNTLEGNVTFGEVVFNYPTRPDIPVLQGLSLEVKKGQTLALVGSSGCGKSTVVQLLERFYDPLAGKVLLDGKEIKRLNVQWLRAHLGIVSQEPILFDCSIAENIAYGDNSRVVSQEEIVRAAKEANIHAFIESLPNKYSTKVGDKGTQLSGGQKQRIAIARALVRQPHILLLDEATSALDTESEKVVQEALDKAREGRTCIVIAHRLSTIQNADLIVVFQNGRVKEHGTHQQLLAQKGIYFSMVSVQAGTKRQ

With `C[C@]1(c2cc(NC(=O)c3ccc(Cl)cn3)ccc2F)N=C(N)OCC1(F)F` [Example 1, 5-Chloro-pyridine-2-carboxylic acid [3-((R)-2-amino-5,5-difluoro-4-methyl-5,6-dihydro-4H-[1,3]oxazin-4-yl)-4-fluoro-phenyl]-amide], in “in vivo effect”, the response vs control in vivo at 30 mg/kg is below 50%. Moreover, the figures for the IC50 (at BACE2; in data set [1]) were 35 nM and 109000 nM, respectively. Moreover, the hERG entry at hERG channel is on record as “A (A = less than 26% inhibition @ 1 μM)”.
The molecule `C[C@]1(c2cc(NC(=O)c3ncc(Cl)cc3Cl)ccc2F)N=C(N)OCC1(F)F` [Example 8, 3,5-Dichloro-pyridine-2-carboxylic acid [3-((R)-2-amino-5,5-difluoro-4-methyl-5,6-dihydro-4H-[1,3]oxazin-4-yl)-4-fluoro-phenyl]-amide] returned a response vs control in vivo at 30 mg/kg in the data set “in vivo effect” below 50%. For the same molecule, the IC50 at BACE2 was found to be 71 nM. For the same molecule, the hERG entry at hERG channel is “A (A = less than 26% inhibition @ 1 μM)”.
Consider `CC1(C)OC(N)=N[C@](C)(c2cc(NC(=O)c3ncc(C(F)(F)F)cc3Cl)ccc2F)C1(F)F` [Example 20, 3-Chloro-5-trifluoromethyl-pyridine-2-carboxylic acid [3-((R)-2-amino-5,5-difluoro-4,6,6-trimethyl-5,6-dihydro-4H-[1,3]oxazin-4-yl)-4-fluoro-phenyl]-amide], for which, in the data set “in vivo effect”, the response vs control in vivo at 30 mg/kg is below 50%. In addition, the “P-gP human, efflux ratio: substrate category” value (from here on “P-gP human, efflux ratio”) at P-gP is given as “A”. Moreover, the IC50 on BACE2 was 1270 nM; in data set [1], above 200000 nM. Also, the hERG entry on hERG channel is given as “A (A = less than 26% inhibition @ 1 μM)”.
The molecule `C[C@]1(c2cc(NC(=O)c3ncc(C(F)(F)F)cc3Cl)ccc2F)N=C(N)OCC1(F)F` [Example 5, 3-Chloro-5-trifluoromethyl-pyridine-2-carboxylic acid [3-((R)-2-amino-5,5-difluoro-4-methyl-5,6-dihydro-4H-[1,3]oxazin-4-yl)-4-fluoro-phenyl]-amide] gave a response vs control in vivo at 30 mg/kg in “in vivo effect” below 50%. Moreover, at P-gP, the “P-gP human, efflux ratio” value is given as “A”. For the same molecule, the IC50 at BACE2 is 15 nM; in data set [1], above 200000 nM. The hERG result on hERG channel is recorded as “A (A = less than 26% inhibition @ 1 μM)”.
`CC1(C)OC(N)=N[C@](C)(c2cc(NC(=O)c3ncc(C#N)cc3Cl)ccc2F)C1(F)F` [Example 22, 3-Chloro-5-cyano-pyridine-2-carboxylic acid [3-((R)-2-amino-5,5-difluoro-4,6,6-trimethyl-5,6-dihydro-4H-[1,3]oxazin-4-yl)-4-fluoro-phenyl]-amide] yielded a response vs control in vivo at 30 mg/kg in “in vivo effect” below 50%. Besides, the IC50 at BACE2 was 175 nM; in data set [1] it was above 200000 nM.
As to `CC1(C)OC(N)=N[C@](C)(c2cc(NC(=O)c3ccc(C#N)cn3)ccc2F)C1(F)F` [Example 21, 5-Cyano-pyridine-2-carboxylic acid [3-((R)-2-amino-5,5-difluoro-4,6,6-trimethyl-5,6-dihydro-4H-[1,3]oxazin-4-yl)-4-fluoro-phenyl]-amide], in the data set “in vivo effect”, the response vs control in vivo at 30 mg/kg is below 50%. Further, the “P-gP human, efflux ratio” value at P-gP is given as “A”. Also, the IC50 on BACE2 is 210 nM; in data set [1] it was above 200000 nM.
In the data set “in vivo effect”, `C[C@]1(c2cc(NC(=O)c3ncc(C#N)cc3Cl)ccc2F)N=C(N)OCC1(F)F` [Example 39, 3-Chloro-5-cyano-pyridine-2-carboxylic acid [3-((R)-2-amino-5,5-difluoro-4-methyl-5,6-dihydro-4H-[1,3]oxazin-4-yl)-4-fluoro-phenyl]-amide] had a response vs control in vivo at 30 mg/kg below 50%. Further, the results for the IC50 (at BACE2; in data set [1]) were 224 nM and above 200000 nM, respectively.
